Data on nine compounds can be found in US20030187261A1, “Purine derivatives, process for their preparation and use thereof” (priority 2000, published 2003).

Data set [1] has as its system MSV. Nature of the data set: MSV-induced transformation in murine embryo fibroblast C3H/3T3 cells. It is filed as cell-based. Particulars: day 6 post infection. The protocol:
The cells were seeded in 1-ml-wells of 48-well plates and exposed to 80 PFU (plaque forming units) for 60-90 min. The virus was subsequently removed and culture medium containing appropriate concentrations of the tested compounds was added (1 ml per well). At day 6-post infection, MSV-induced transformation of the cell culture was examined microscopically. The results are summarised in Table 9 in comparison with the data on the prototype compounds.

The subject of data set [2] is HIV-2. The experiment in a line: HIV-2-induced cytopathicity in MT-4 cells. In kind it is cell-based. Particulars: for HIV-2 MT-4 IC50: MT-4 cells, 5 days. (In general: Damage to the host cells serves as the signal in cytopathic effect assays.)
Description: (§6) The infected cell cultures were incubated at 37° C. for 5 days in a humidified CO2 incubator. The cytopathicity of the virus was examined by determination of MT-4 cell viability by trypan blue dye staining.
The subject of data set [3] is HIV-2. The experiment in a line: anti-HIV-2 activity in CEM cells. In kind it is cell-based.
Description: as §6
The subject of data set [4] is HIV-1. The following applies: CEM cells.
Description: as §6
For data set [5], the system named is HIV-1. The following applies: for HIV-1 MT-4 IC50: MT-4 cells, 5 days.
Description: as §6
Data set [6] has as its system retroviruses. The experiment in a line: anti-retroviral activity in vitro. In kind it is cell-based.
Description: as §6
The subject of data set [7] is the cells. The following applies: at 100 μg/ml.
Data set [8] has as its target T1, CDC2 (Homo sapiens, UniProt P06493).
T1 construct: made in house; host or cells: Sf9 insect cells, baculovirus co-infection
The experiment in a line: p34cdc2 (CDC2) kinase inhibition assay, histone H1 substrate. In kind it is biochemical. The following applies: Table 3.
Description: Cyclin-dependent kinases (p34^cdc2, p33^cdk2, p33^cdk4 and cyclins (cyclin B, E and DI) are produced in Sf9 insect cells coinfected with appropriate baculoviral constructs. The cells are harvested 68-72 hrs post infection in lysis buffer for 30 min on ice and the soluble fraction is recovered by centrifugation at 14.000 g for 10 min. The protein extract is stored at −80° C.
To carry out experiments on kinetics under linear conditions, the final point test system for kinase activity measurement is used. The kinase is added to the reaction mixture in such a way that linear activity is obtained with respect to the concentration of enzyme and with respect to time.
Inhibition of p33^cdk4 kinase is determined with Rb-GST (0.2 mg/ml) as the substrate. Kinase activity is determined at 30° C. in kinase buffer.
Tested compounds are usually dissolved to 100 mM solutions in DMSO, the final concentration of DMSO in reaction mixture never exceeds 1%. The controls contain suitable dilutions of DMSO. After 10 min, the addition of 3×SDS sample buffer stops the incubations. […] The measurement of kinase activity is done using digital image analysis. The kinase activity is expressed as a percentage of maximum activity, the apparent inhibition constants are determined by graphic analysis. Kinase buffer: 50 mM Hepes pH 7.4, 10 mM MgCl21 5 mM EGTA, 10 mM 2-glycerolphosphate,

Data set [9] addresses IκB-α. The experiment in a line: IκB-α kinase-inhibitory activity. In kind it is biochemical. Particulars: Table 3. From the text: Modification of 2,6,9-trisubstituted purines by a catechol-like substituent at R6 leads to an increase in cdk inhibitory activity of the tested compounds.
In data set [10] the test system is MPF activity. Nature of the data set: M-phase promoting factor inhibition in metaphase-arrested Xenopus egg extracts. In kind it is biochemical. Particulars: 1.5 h after addition. The procedure: (§1) Metaphase-arrested Xenopus egg extracts were prepared as described previously by Blow “J. Cell Biol.” 1993, 122:993 and stored in liquid nitrogen. Demembranated Xenopus sperm nuclei were prepared as described by Blow & Laskey “Cell” 1986;47:577.
(§2) At concentrations of cdk inhibitors (see Table 6) ranging from 0.1-2 μM, chromosomes remained highly condensed and no nuclear envelope was visible. At 4-6 μM and higher concentrations, interphase nuclei appeared with partially decondensed chromatin and an intact nuclear envelope. […] For the inhibition effect to become detectable, the first 15-min incubation of the interphase extract is probably sufficient.

For data set [11], the system named is DNA synthesis. The experiment in a line: DNA synthesis in Xenopus egg extracts ([α-32P]dATP incorporation). In kind it is biochemical. The following applies: [α-32P]dATP incorporation after 3 h; read-out: Inhibition of DNA synthesis IC50. The procedure: as §1, §2
In data set [12] the test system is T-lymphoblastic leukemia cell line CEM. Nature of the data set: MTT cytotoxicity assay, CEM. It is filed as cell-based, human. Particulars: 72 hours (TCS50 in the method). An excerpt: (§3) One of the parameters used as the basis for colorimetric assays is the metabolic activity of viable cells. For example, a microtiter assay, which uses the tetrazolium salt MTT, is now widely used to quantitate cell proliferation and cytotoxicity. For instance, this assay is used in drug screening programs and in chemosensitivity testing. Because only metabolically active cells cleave tetrazolium salts, these assays detect viable cells exclusively. In the case of MTT assay, yellow soluble tetrazolium salt is reduced to coloured water-insoluble formazan salt. After it is solubilized, the formazan formed can easily and rapidly be quantified in a conventional ELISA plate reader at 570 nm (maximum absorbance). The quantity of reduced formazan corresponds to number of vital cells in the culture. Human T-lymphoblastic leukemia cell line CEM; promyelocytic HL-60 and monocytic U937 leukemias; breast carcinoma cell lines MCF-7, BT549, MDA-MB-231; glioblastoma U87MG cells; cervical carcinoma cells HELA; sarcoma cells U20S and Saos2; hepatocellular carcinoma HepG2; mouse immortalized bone marrow macrophages B2.4 and B10A.4; P388D1 and L1210 leukemia; B16 and B16F10 melanomas were used for routine screening of the compounds according to the invention. The cells were maintained in Nunc/Corning 80 cm^2 plastic tissue culture flasks and cultured in cell culture medium (DMEM with 5 g/l glucose, 2 mM glutamine, 100 U/ml penicillin, 100 μg/ml streptomycin, 10% fetal calf serum and sodium bicarbonate).
(§4) The cell suspensions that were prepared and diluted according to the particular cell type and the, expected target cell density (2500-30000 cells per well based on cell growth characteristics) were added by pipette (80 μl) into 96-well microtiter plates. Inoculates were allowed a pre-incubation period of 24 hours at 37° C. and 5% CO2 for stabilisation. Four-fold dilutions of the intended test concentration were added at time zero in 20 μl aliquots to the microtiter plate wells. Usually, test compound was evaluated at six 4-fold dilutions. In routine testing, the highest well concentration was 266.7 μM, but it can be the matter of change dependent on the agent. All drug concentrations were examined in duplicates. Incubations of cells with the test compounds lasted for 72 hours at 37° C., in 5% CO2 atmosphere and 100% humidity. At the end of incubation period, the cells were assayed by using the MTT. Ten microliters of the MTT stock solution were pipetted into each well and incubated further for 1-4 hours. After this incubation period, formazan was solubilized by addition of 100 μl/well of 10% SDS in water (pH=5.5) followed by further incubation at 37° C. overnight. The optical density (OD) was measured at 540 nm with the Labsystem iEMS Reader MF (UK). The tumour cell survival (TCS) was calculated using the following equation: TCS=(ODdrug exposed well/mean ODcontrol wells)×100%. The TCS50 value, the drug concentration lethal to 50% of the tumour cells, was calculated from the obtained dose response curves.
(§5) The cytoxicity of novel compounds was tested on panel of cell lines of different histogenetic and species origin (Table 7). Equal activities were found in all tumour cell lines tested. […] Importantly, this observation distinguishes the purine derivatives of the invention from flavopiridol and related compounds, as their biological activity is dependent on p53 status.
On the technique in general: Tetrazolium dyes change colour on reduction, which living cells bring about.

Data set [13] concerns B16 melanoma. Nature of the data set: MTT cytotoxicity assay, B16. In kind it is cell-based, mouse. The following applies: 72 hours (TCS50 in the method).
From the text: as §3, §4, §5

Data set [14] deals with normal human lymphocytes. Nature of the data set: concanavalin A induced lymphocyte proliferation, [3H]-TdR incorporation. In kind it is cell-based. Particulars: 72 hours, read-out: ED50 (the source's name). The protocol:
Human heparinized peripheral blood was obtained from healthy volunteers by cubital vein punction. The blood was diluted in PBS (1:3) and mononuclear cells were separated by centrifugation in Ficoll-Hypaque density gradient (Pharmacia, 1.077 g/ml) at 2200 rpm for 30 minutes. Following centrifugation, lymphocytes were washed in PBS and resuspended in cell culture medium (RMPI 1640, 2 mM glutamine, 100 U/ml penicillin, 100 μg/ml streptomycin, 10% fetal calf serum and sodium bicarbonate).
The cells were diluted at target density of 1100000 cells/ml and were added by pipette (180 μl) into 96/well microtiter plates. Four-fold dilutions of the intended test concentration were added at time zero in 20 μl aliquots to the microtiter plate wells. Usually, test compound was evaluated at six 4-fold dilutions. In routine testing, the highest well concentration was 266.7 μM. All drug concentrations were examined in duplicates. All wells with exception of unstimulated controls were activated with 50 μl of concanavalin A (25 μg/ml). Incubations of cells with test compounds lasted for 72 hours at 37° C., in 5% CO2 atmosphere and 100% humidity. At the end of incubation period, the cells were assayed by using the [^3H]-TdR:
Cell cultures were incubated with […] (20 μl of stock solution 500 μCi/ml) per well for 6 hours at 37° C. and 5% CO2. The automated cell harvester was used to lyse cells in water and adsorb the DNA onto glass-fiber filters in the format of microtiter plate. The DNA incorporated [^3H]-TdR was retained on the filter while unincorporated material passes through. The filters were dried at room temperature overnight, sealed into a sample bag with 10-12 ml of scintillant. The amount of [^3H]-TdR present in each filter (in cpm) was determined by scintillation counting in a Betaplate liquid scintillation counter. The effective dose of immunosuppressant (ED) was calculated using the following equation: ED=(cpmdrug exposed well/mean cpmcontrol wells)×100%. The EDs50 value, the drug concentration inhibiting proliferation of 50% of lymphocytes, was calculated from the obtained dose response curves.
To evaluate immunosuppressive activity of substituted adenines, their ability to inhibit polyclonal mitogen induced proliferation of normal human lymphocytes was analyzed (Table 8). […] Effective immunosuppressive dose of new derivatives under in vitro conditions was close to 1-20 μM.

T1 sequence (P06493 whole entry, species assumed): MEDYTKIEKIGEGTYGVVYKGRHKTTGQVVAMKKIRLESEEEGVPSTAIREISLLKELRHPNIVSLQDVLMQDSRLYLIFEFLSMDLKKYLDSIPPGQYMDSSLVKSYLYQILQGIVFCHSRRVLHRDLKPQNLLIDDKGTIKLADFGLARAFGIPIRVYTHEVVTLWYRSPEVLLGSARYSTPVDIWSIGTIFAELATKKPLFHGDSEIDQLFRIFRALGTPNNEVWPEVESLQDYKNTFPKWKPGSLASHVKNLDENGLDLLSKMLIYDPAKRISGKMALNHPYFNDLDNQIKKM
T1 sequence (P14635 whole entry partner, species assumed): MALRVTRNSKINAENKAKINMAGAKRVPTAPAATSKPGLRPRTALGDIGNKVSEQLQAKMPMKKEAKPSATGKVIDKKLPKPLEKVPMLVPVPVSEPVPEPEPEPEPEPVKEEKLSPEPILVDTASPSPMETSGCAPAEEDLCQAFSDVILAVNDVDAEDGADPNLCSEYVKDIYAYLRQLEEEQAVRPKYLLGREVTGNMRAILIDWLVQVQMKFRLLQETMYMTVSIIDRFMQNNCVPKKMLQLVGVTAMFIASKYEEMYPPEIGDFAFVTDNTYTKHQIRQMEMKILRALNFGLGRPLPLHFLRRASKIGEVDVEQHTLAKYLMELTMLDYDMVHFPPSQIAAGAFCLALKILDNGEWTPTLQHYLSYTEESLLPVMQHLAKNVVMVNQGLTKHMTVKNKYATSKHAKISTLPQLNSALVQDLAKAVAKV

Consider `CN(CCc1ccc(O)c(O)c1)c1nc(N)nc2c1ncn2CCOCP(=O)(O)O`, for which, in data set [1], the “MSV IC50” value came to 0.9 µg/mL. Further, the “HIV-2 MT-4 IC50” value in data set [2] worked out at 32 µg/mL. The “HIV-2 CEM IC50” value in [3] is above 20 µg/mL. The “HIV-1 CEM IC50” value in data set [4] is above 20 µg/mL.
In the case of `Nc1nc(NCc2ccc(O)c(O)c2)c2ncn(CCOCP(=O)(O)O)c2n1`, the “HIV-2 CEM IC50” value in data set [3] is above 20 µg/mL. The “HIV-1 CEM IC50” value in data set [4] was above 20 µg/mL.
With `CC(Cn1cnc2c(NC(CO)c3ccccc3)nc(N)nc21)OCP(=O)(O)O` (stereo not shown), in [3], the “HIV-2 CEM IC50” value is above 20 µg/mL. In addition, the “HIV-1 MT-4 IC50” value in data set [5] came out at 10.1 µg/mL. Moreover, the “HIV-1 CEM IC50” value in data set [4] was above 20 µg/mL.
On to `CC(Cn1cnc2c(NCc3ccc(O)c(O)c3)nc(N)nc21)OCP(=O)(O)O` (stereo not shown), for which, in data set [3], the “HIV-2 CEM IC50” value worked out at 8.3 µg/mL. The “HIV-1 MT-4 IC50” value in [5] was 3.2 µg/mL.
Regarding `CC(Cn1cnc2c(N(C)CCc3ccc(O)c(O)c3)nc(N)nc21)OCP(=O)(O)O` (stereo not shown), the “HIV-2 MT-4 IC50” value in data set [2] is 3.2 µg/mL. The “HIV-2 CEM IC50” value in data set [3] was found to be 7.8 µg/mL.
Turning to `Nc1nc(NC(CO)c2ccccc2)c2ncn(CCOCP(=O)(O)O)c2n1` (racemic), the “HIV-2 CEM IC50” value in data set [3] is above 20 µg/mL. The “HIV-1 CEM IC50” value in data set [4] was above 20 µg/mL.
`C[C@H](Cn1cnc2c(N)nc(N)nc21)OCP(=O)(O)O` [(R)-PMPD]: the “selectivity index (ratio cytotoxic dose/antivirally active dose)” value in [2] (HIV-2) and in [5] (HIV-1) was “higher than 2000” in each case. The compound further returned an EC50 retrovirus replication in data set [6] of 0.01 to 0.1 µg/mL. Besides, in data set [7], the “toxicity to the cells” value is recorded as “not toxic”.
With `CC[C@H](CO)Nc1nc(N(C)CCc2ccc(O)c(O)c2)c2ncn(C(C)C)c2n1`, the IC50 was determined as 0.95 µM in [8]; 3.2 µM in [9]; 1.12 µM in data set [10]; 1.3 µM in data set [11]; 6 µM in [12]; 6 µM in data set [13]. The EC50 in [14] was found to be 1.5 µM.
For the compound `CC(C)n1cnc2c(NCc3ccc(O)c(O)c3)nc(NCCCO)nc21`, the IC50 in [10] was 3.6 µM; in data set [11], 4.2 µM.

Broadly, the IC50 is the concentration at which inhibition is half-maximal.
